Here are results for five compounds from patent US8313744B2, “Composition for the prevention and treatment of absence seizures comprising PKC agonist as an effective ingredient” (Korea Institute of Science and Technology, priority 2010, dated 2012).

Each structure is given as a SMILES string.

Common to all, as to type: in vivo
Assay [1] relates to PLCβ4 knock-out mouse. The assay can be described thus: Sensitivity to absence seizure inducing agents (GABAB receptor agonists), EEG measurement. The settings on record: PLCβ4 knock-out mouse compared with normal mouse.
For assay [2], the system named is PLCβ4 knock-out mouse. Description: SWD reduction by ethosuximide, EEG measurement. The settings on record: 200 mg/kg intraperitoneal, EEG recorded 1 hour, starting 30 minutes after injection, compared with NaCl control.
Assay [3] has as its system PLCβ4 knock-out mouse. Description: Change of SWD after injection of PKC agonist or calcium channel blocker into the thalamus relay nuclei, EEG measurement.
Where [4] appears, read: 10 pmol injected into thalamus relay nuclei, compared with before / 0.9% NaCl.

As for `O=C1CCCO1` [γ-butyrolactone], in the assay on PLCβ4 knock-out mouse [1] (after absence seizure inducing drug), the “absence seizure specific SWD” value is recorded as “increased”. In addition, the “duration of paroxysmal SWD after drug administration” value in the assay with PLCβ4 knock-out mouse [1] (intraperitoneal, γ-butyrolactone 40 or 70 mg/kg, RS(+/−)-baclofen 20 mg/kg) is listed as “continued even longer”.

Regarding `CCC1(C)CC(=O)NC1=O` (centres unmarked) [ethosuximide], in the assay with PLCβ4 knock-out mouse [2], the “SWD (spike-and-wave discharge) in EEG” value is recorded as “significantly reduced”.

Turning to `COCC(=O)O[C@]1(CCN(C)CCCc2nc3ccccc3[nH]2)CCc2cc(F)ccc2[C@@H]1C(C)C` [mibefradil], the “SWD (hourly number) in EEG” value in the assay with PLCβ4 knock-out mouse [3] (1 nmol injected into thalamus relay nuclei) is listed as “significantly reduced”.

In the case of `CCCCCCCCCC(=O)O[C@@H]1[C@@H](C)[C@@]2(O)[C@@H](C=C(CO)C[C@]3(O)C(=O)C(C)=C[C@@H]23)[C@@H]2C(C)(C)[C@]12OC(=O)CCCCCCCCC` [PDD, phorbol 12,13-didecanoate], the “SWD (hourly number) in EEG” value is reported as “significantly reduced” in the assay with PLCβ4 knock-out mouse [3] (setting [4]) and “reduced” with PLCβ4 knock-out mouse [3] (10 pmol injected into thalamus relay nuclei, compared with before / 0.9% NaCl, listed as phorbol 12,13-didecanoate).

Take `CCCCCCCCCCCCCC(=O)O[C@@H]1[C@@H](C)[C@@]2(O)[C@@H](C=C(CO)C[C@]3(O)C(=O)C(C)=C[C@@H]23)[C@@H]2C(C)(C)[C@]12OC(C)=O` [PMA, phorbol 12-myristate 13-acetate]: the “SWD (hourly number) in EEG” value with PLCβ4 knock-out mouse [3] (setting [4]) is given as “significantly reduced”; with PLCβ4 knock-out mouse [3] (10 pmol injected into thalamus relay nuclei, compared with before / 0.9% NaCl, listed as phorbol 12-myristate 13-acetate), “reduced”.
